Source: paper PMC4769319, “Cohesin Releases DNA through Asymmetric ATPase-Driven Ring Opening” (Molecular Cell, 2016)

Target: T1, Smc1/Smc3 heterodimer with Scc1-C (cohesin) (Saccharomyces cerevisiae, UniProt P32908+P47037)
T1 construct: N-terminal tags; Sf9 insect cells; fluorescently labelled for MST; with Sister chromatid cohesion protein 1
T1 sequence (P32908 1-1225): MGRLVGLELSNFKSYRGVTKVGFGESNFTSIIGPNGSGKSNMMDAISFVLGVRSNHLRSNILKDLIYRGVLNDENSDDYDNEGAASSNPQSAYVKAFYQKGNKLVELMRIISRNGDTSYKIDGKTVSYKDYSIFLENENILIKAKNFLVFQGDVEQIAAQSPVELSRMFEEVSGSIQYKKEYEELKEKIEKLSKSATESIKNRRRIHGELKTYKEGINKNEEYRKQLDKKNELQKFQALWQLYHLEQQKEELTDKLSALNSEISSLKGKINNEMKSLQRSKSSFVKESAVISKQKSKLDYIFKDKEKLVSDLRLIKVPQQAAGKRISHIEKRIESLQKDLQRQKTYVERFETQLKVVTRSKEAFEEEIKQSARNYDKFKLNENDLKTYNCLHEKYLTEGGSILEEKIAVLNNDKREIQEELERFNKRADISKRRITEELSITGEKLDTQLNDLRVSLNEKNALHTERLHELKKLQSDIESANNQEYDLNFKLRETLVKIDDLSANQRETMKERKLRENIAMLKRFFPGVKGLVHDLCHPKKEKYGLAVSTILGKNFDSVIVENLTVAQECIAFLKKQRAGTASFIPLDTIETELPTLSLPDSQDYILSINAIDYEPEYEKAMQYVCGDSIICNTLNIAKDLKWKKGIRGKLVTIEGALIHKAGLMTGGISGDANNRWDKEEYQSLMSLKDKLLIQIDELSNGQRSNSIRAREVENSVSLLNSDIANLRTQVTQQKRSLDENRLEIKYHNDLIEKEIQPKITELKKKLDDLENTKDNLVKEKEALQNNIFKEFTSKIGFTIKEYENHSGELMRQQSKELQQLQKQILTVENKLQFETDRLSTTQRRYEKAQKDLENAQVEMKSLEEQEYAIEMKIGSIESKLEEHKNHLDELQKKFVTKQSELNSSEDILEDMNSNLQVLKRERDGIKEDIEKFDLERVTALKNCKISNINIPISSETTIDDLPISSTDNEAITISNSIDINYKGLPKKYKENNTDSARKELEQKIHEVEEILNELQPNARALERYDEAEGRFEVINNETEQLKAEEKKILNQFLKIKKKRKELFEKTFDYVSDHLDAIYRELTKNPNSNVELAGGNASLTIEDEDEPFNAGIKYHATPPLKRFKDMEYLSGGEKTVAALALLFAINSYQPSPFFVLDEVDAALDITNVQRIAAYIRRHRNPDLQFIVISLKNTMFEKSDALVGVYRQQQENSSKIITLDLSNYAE
T1 sequence (P47037 1-1230): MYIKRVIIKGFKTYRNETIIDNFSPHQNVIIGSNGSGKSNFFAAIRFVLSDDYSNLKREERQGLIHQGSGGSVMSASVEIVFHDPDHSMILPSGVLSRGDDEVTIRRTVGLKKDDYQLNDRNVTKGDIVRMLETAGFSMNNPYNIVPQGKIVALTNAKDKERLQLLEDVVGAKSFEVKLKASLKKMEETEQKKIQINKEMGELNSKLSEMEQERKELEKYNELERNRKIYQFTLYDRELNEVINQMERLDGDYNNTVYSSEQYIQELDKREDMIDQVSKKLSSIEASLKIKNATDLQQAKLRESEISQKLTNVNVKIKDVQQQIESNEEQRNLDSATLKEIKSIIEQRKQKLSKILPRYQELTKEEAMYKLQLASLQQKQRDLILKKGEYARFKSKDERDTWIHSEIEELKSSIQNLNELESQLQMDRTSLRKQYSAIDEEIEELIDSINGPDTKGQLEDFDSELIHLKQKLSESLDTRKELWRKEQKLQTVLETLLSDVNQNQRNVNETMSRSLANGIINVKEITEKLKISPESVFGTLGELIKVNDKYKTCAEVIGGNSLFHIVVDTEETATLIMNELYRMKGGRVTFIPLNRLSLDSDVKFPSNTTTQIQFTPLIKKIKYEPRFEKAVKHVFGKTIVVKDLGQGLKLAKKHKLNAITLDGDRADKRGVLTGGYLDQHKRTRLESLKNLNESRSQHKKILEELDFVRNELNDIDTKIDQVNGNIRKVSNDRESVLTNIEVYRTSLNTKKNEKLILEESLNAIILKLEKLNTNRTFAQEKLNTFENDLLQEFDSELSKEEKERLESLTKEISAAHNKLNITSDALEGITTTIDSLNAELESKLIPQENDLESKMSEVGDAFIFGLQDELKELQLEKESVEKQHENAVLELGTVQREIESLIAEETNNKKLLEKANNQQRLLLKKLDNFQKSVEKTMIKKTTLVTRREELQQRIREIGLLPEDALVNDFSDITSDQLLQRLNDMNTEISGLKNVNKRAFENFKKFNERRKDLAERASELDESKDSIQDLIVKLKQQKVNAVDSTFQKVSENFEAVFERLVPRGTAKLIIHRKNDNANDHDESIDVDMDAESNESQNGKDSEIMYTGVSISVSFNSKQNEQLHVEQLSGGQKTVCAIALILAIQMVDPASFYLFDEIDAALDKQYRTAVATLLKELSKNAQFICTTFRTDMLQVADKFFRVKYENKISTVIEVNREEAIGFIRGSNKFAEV
T1 sequence (Q12158 1-566 partner): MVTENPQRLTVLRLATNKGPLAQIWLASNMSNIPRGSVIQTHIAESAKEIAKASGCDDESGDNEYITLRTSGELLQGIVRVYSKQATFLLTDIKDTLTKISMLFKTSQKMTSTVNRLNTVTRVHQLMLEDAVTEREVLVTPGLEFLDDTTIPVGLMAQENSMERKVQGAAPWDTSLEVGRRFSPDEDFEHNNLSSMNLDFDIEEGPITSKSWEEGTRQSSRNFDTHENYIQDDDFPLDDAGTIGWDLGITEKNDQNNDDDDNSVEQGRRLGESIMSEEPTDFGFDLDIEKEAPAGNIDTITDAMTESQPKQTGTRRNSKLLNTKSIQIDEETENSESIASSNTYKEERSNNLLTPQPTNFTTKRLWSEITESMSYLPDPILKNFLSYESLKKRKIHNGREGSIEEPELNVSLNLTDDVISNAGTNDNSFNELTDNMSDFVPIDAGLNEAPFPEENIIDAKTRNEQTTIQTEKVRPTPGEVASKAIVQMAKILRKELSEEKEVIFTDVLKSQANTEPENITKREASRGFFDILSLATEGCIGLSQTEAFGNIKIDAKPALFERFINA
Experiment: microscale thermophoresis
Format: binding
Settings: fluorescently labelled protein; Smc1 co-purified with Scc1-C, plus Smc3; read-out: affinity
Text: microscale thermophoresis on Smc1/Smc3 heterodimer with Scc1-C (cohesin) | wild-type and mutant cohesin complexes appear to have similar affinities to ADP

- Kd: > 1 mM
SMILES: Nc1ncnc2c1ncn2[C@@H]1O[C@H](COP(=O)(O)OP(=O)(O)O)[C@@H](O)[C@H]1O [ADP]
